Calls of active or inactive are those of the source. The calls are words filed in the database; no cut-off is given here.
How the values were obtained:
[1] = target: Acetylcholinesterase (Homo sapiens) (UniProt P22303); experiment: Inhibition of human erythrocyte AChE at 20 uM using acetylthiocholine iodide as substrate preincubated for 10 mins followed by substrate addition by Ellman's method relative to control
[2] = Antioxidant activity assessed as decrease in ABTS radical cation scavenging activity every 1 min for 6 mins by UV-Vis spectrophotometric analysis; format: functional
[3] = Potency index, ratio of trolox IC50 to test compound IC50 for antioxidant activity assessed as decrease in ABTS radical cation scavenging activity; format: functional
[4] = target: Cholinesterase (Equus caballus) (UniProt P81908); experiment: Inhibition of equine serum BuChE at 20 uM using […] as substrate preincubated for 10 mins followed by substrate addition by Ellman's method relative to control
Liver carboxylesterase [5] = target: T1, Liver carboxylesterase (Sus scrofa, UniProt Q29550); experiment: Inhibition of porcine liver carboxylesterase at 20 uM using 4-NPA as substrate preincubated for 10 mins followed by substrate addition by spectrophotometric analysis relative to control; settings: pig
T1 sequence (Q29550 whole entry): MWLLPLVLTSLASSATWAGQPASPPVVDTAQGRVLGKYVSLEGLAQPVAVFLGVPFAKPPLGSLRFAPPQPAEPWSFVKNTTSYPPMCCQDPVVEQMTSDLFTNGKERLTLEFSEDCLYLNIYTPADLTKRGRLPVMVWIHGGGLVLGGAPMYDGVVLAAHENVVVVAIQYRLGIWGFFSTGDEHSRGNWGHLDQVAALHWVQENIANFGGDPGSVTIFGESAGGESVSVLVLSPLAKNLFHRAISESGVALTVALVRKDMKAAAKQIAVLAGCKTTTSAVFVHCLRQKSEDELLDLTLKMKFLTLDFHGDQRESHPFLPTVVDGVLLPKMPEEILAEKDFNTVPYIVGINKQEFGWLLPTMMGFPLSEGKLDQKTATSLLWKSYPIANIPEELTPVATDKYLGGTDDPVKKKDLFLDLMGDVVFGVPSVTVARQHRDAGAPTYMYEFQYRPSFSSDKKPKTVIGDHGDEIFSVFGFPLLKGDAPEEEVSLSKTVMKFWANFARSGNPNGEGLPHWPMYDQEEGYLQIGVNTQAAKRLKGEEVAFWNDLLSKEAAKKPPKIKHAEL

[6] = Potency index, ratio of ascorbic acid IC50 to test compound IC50 for antioxidant activity assessed as decrease in ABTS radical cation scavenging activity; format: functional
Liver carboxylesterase [7] = target: T1, Liver carboxylesterase; experiment: Non-competitive inhibition of porcine liver carboxylesterase by double reciprocal Lineweaver-Burk plot analysis; settings: pig
Liver carboxylesterase [8] = target: T1, Liver carboxylesterase; experiment: Competitive inhibition of porcine liver carboxylesterase by double reciprocal Lineweaver-Burk plot analysis
Liver carboxylesterase [9] = target: T1, Liver carboxylesterase; experiment: Inhibition of porcine liver carboxylesterase using 4-NPA as substrate preincubated for 10 mins followed by substrate addition by spectrophotometric analysis
[10] = Antioxidant activity assessed as decrease in ABTS radical cation scavenging activity after 1 min by UV-Vis spectrophotometric analysis relative to control; format: functional; set-up: scale not given: the % may be the effect or the level left

Sequence of Acetylcholinesterase (Homo sapiens) (P22303 whole entry): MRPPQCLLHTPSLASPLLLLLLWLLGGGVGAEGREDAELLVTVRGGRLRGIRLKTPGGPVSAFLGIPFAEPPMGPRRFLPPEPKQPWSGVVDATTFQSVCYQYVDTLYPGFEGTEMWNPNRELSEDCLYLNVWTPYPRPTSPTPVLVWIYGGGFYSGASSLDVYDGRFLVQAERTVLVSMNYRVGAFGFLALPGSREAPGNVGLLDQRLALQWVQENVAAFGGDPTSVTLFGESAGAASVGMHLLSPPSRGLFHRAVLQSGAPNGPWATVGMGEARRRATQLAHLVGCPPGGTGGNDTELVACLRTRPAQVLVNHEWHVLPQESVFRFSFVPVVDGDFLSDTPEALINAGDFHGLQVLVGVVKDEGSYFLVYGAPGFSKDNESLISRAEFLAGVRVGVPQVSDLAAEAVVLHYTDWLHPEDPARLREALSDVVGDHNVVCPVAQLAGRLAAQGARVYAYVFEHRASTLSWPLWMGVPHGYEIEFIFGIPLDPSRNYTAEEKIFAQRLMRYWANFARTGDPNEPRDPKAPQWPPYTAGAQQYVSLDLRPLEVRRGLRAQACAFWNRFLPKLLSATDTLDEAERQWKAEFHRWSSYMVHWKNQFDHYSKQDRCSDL
Sequence of Cholinesterase (Equus caballus) (P81908 whole entry): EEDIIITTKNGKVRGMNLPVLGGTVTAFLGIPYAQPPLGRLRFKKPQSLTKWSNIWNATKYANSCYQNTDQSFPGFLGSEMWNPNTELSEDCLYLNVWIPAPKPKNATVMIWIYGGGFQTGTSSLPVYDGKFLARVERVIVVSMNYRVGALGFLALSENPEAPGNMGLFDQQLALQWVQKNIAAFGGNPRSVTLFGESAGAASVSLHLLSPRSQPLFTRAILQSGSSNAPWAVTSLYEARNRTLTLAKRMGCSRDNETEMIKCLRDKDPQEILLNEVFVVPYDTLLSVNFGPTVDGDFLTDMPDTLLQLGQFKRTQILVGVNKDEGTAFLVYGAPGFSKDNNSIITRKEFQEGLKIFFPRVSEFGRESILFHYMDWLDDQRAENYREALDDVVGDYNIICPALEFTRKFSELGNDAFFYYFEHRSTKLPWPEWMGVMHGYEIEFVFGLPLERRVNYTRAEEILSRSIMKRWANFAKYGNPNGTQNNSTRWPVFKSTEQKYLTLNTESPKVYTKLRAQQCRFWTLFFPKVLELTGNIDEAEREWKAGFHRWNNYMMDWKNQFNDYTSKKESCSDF

Structure (SMILES)	inhibition [1]	IC50 [2] [µM]	Ratio IC50 [3]	inhibition [4]	inhibition at 20 µM (Liver carboxylesterase [5]; porcine liver carboxylesterase, probe 4-NPA) [%]	Ratio IC50 [6]	alphaKi (Liver carboxylesterase [7]) [µM]	Ki (Liver carboxylesterase [8]) [µM]	IC50 (Liver carboxylesterase [9]) [µM]	Activity [10] [%]	inhibition (INH) (Liver carboxylesterase [5]; 20 µM)
CC(=O)/C(=N/Nc1ccc(C)cc1)C(=O)O	inactive	12.8	1.65	inactive	9.3						
Cc1ccc(N/N=C(\C(=O)O)C(=O)C(F)(F)F)cc1	inactive	12.1	1.69	18.1%		2	1.11	0.337	0.63		
CCOC(=O)c1ccc(N/N=C(\C(=O)O)C(=O)C(F)(F)F)cc1	8.1%	96.4	0.25	3.4%					0.324		
Cc1c(C)c2c(c(C)c1O)CCC(C)(C(=O)O)O2 (stereo not drawn) [TROLOX]		20.4									
COc1ccc(N/N=C(\C(=O)O)C(=O)C(F)(F)F)cc1	inactive	11	1.9	17.3%		2			2.62	75	
O=C(O)/C(=N\Nc1ccc([N+](=O)[O-])cc1)C(=O)C(F)(F)F	6.1%		0.05	17.3%					2.76		
O=[N+]([O-])c1ccc(OP(=O)(O)Oc2ccc([N+](=O)[O-])cc2)cc1	inactive			inactive							
COc1ccc(N/N=C(/C(C)=O)C(=O)O)cc1	inactive	9.7	1.9	5.4%							Not Active
O=C1O[C@H]([C@@H](O)CO)C(O)=C1O [ASCORBIC ACID]		21.4	0.98								
CCOC(=O)c1ccccc1N/N=C(\C(=O)O)C(=O)C(F)(F)F	16.5%		0.01	8.7%					0.0696		
